Results: ChEMBL document CHEMBL4842329 (Eur J Med Chem, 2021)

Each molecule was assayed against T1, Sodium-dependent serotonin transporter (Homo sapiens, UniProt P31645) (assay: not given).
Assay type: cell-based, COS7

T1 sequence (P31645 whole entry): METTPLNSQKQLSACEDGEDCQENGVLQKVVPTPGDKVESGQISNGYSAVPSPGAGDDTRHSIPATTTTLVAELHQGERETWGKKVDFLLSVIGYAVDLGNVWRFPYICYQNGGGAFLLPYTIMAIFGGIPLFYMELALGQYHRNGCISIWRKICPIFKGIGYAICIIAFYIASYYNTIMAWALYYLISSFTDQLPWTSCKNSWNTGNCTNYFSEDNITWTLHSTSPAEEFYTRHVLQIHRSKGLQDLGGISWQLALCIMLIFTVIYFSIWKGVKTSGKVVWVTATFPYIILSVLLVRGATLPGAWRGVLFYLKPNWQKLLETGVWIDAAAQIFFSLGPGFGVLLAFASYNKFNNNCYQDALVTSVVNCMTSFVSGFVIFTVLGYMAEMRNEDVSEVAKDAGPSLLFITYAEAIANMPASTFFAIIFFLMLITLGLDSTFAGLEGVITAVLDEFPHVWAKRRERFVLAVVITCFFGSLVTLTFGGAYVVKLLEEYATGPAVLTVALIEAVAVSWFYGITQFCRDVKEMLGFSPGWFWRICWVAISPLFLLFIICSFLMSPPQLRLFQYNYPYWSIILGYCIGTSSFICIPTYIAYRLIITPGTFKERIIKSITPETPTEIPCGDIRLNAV

Point of comparison: COC(=O)C1CCC2CC(O)C1N2c1ccc(Cl)c(Cl)c1 (stereo not given), IC50 5.65 µM. Against it:
- COC(=O)C1CCC2CC(O)C1N2c1ccccc1 (stereo not given) — 380-fold lower, 0.015 µM

What follows are molecules tested against T1, Sodium-dependent serotonin transporter (assay: biochemical).
Assay type: cell-based, HEK293

Point of comparison: COCCCC/C(=N\OCCN)c1ccc(F)cc1, Ki 1.62 µM. Against it:
- CNCCC(Oc1ccc(I)cc1F)c1ccccc1 (stereo not given) — 70-fold lower, 0.023 µM
- COCCCC/C(=N\OCCN)c1ccc(Cl)cc1 — 27-fold lower, 0.061 µM
- CNCCC(Oc1ccc(Br)cc1)c1ccccc1 (stereo not given) — 68-fold lower, 0.024 µM
- COCCCC/C(=N\OCCN)c1ccc(I)cc1 — 110-fold lower, 0.015 µM
- CNCCC(Oc1ccc(Cl)cc1F)c1ccccc1 (stereo not given) — 31-fold lower, 0.052 µM
- COCCCC/C(=N\OCCN)c1ccc(Br)cc1 — 70-fold lower, 0.023 µM
- COCCCC/C(=N\OCCN)c1ccc(Cl)c(Cl)c1 — 180-fold lower, 0.009 µM
- CNCCC(Oc1ccc(Br)c(F)c1)c1ccccc1 (stereo not given) — 85-fold lower, 0.019 µM
- CNCCC(Oc1cccc(F)c1)c1ccccc1 (stereo not given) — 4.6-fold lower, 0.349 µM
- CNCCC(Oc1cccc(Cl)c1)c1ccccc1 (stereo not given) — 25-fold lower, 0.066 µM
- CNCCC(Oc1ccc(Cl)cc1)c1ccccc1 (stereo not given) — 29-fold lower, 0.055 µM
- CNCCC(Oc1ccccc1)c1ccccc1 (stereo not given) — within 1.5-fold, 1.46 µM
- CNCCC(Oc1ccc(I)cc1)c1ccccc1 (stereo not given) — 120-fold lower, 0.014 µM
- CNCCC(Oc1ccc(Cl)c(Cl)c1)c1ccccc1 (stereo not given) — 320-fold lower, 0.005 µM
- COCCCC/C(=N\OCCN)c1ccc(Cl)cc1F — 8-fold lower, 0.202 µM
- COCCCC/C(=N\OCCN)c1ccc(Br)cc1F — 12-fold lower, 0.137 µM
- CNCCC(Oc1ccc(Br)cc1F)c1ccccc1 (stereo not given) — 40-fold lower, 0.041 µM
- COCCCC/C(=N\OCCN)c1ccc(Br)c(F)c1 — 77-fold lower, 0.021 µM
- CNCCC(Oc1ccc(F)cc1)c1ccccc1 (stereo not given) — 3-fold lower, 0.543 µM
- CNCCC(Oc1ccc(Cl)c(F)c1)c1ccccc1 (stereo not given) — 52-fold lower, 0.031 µM
- COCCCC/C(=N\OCCN)c1ccc(Cl)c(F)c1 — 26-fold lower, 0.062 µM

Molecular target: T1, Sodium-dependent serotonin transporter
Assay: not given
Remark: another data set of the same source

With Brc1ccc([C@@H]2CCNC[C@H]2COc2ccc3c(c2)OCO3)cc1 the Ki was 0.00107 µM.
